US20070185161A1, “Bicyclic substituted indole-derivative steroid hormone nuclear receptor modulators” (priority 2004, published 2007)

Target: T1, human MR (Homo sapiens, UniProt P08235)
T1 construct: The full length human MR gene is cloned from a human kidney or human brain cDNA library; made in house; host or cells: SF9 insect cells (baculovirus)
T1 sequence (P08235 1-984): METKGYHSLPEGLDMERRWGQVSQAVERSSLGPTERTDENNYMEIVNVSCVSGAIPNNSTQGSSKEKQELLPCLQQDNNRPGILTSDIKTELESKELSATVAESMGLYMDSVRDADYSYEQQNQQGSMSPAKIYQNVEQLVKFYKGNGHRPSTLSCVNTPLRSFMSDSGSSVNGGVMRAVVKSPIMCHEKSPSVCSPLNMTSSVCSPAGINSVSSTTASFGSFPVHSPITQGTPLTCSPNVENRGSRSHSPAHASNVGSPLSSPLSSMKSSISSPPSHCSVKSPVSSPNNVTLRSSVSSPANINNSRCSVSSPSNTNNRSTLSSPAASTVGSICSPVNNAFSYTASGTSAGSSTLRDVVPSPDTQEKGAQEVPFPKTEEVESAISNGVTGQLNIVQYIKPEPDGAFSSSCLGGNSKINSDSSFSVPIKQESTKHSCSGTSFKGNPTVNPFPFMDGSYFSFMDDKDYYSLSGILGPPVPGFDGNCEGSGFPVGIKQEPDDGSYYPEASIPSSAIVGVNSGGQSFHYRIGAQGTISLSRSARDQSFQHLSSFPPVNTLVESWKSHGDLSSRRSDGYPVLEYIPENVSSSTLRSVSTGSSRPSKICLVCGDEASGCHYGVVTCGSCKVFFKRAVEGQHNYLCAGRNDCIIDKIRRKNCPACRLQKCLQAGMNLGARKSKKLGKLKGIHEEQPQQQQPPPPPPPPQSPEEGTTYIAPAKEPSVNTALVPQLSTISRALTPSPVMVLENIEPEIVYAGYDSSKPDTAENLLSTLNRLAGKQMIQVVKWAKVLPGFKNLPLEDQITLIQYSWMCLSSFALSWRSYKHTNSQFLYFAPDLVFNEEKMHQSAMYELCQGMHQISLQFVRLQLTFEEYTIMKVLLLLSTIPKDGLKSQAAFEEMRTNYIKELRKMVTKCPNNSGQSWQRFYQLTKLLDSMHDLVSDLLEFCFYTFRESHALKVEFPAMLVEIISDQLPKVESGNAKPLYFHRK
Experiment: Mineralocorticoid Receptor Binding Assay (Method 1)
Conditions: [3H]-aldosterone, racemic mixture unless otherwise indicated
Outline: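 Lysate of Sf9 cells expressing baculovirus full-length human MR (20-25 μg protein) incubated with 0.5 nM [3H]-aldosterone and test compound, pH 7.5 molybdate buffer, 16 h at 4 °C. Bound ligand collected by filtration and counted by scintillation. IC50 for displacement; Ki by Cheng-Prusoff.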

Row | Ki [nM] | SMILES
1 | ≤ 500 | CNCCCC1(c2c[nH]c3c(NS(C)(=O)=O)cccc23)CCc2cc(F)ccc21 (centres unmarked) [Example 42, N-{3-[5-Fluoro-1-(3-methylamino-propyl)-indan-1-yl]-1H-indol-7-yl}-methanesulfonamide]
2 | ≤ 500 | CS(=O)(=O)Nc1cccc2c(C3(CCCN4CCOCC4)CCc4cc(F)ccc43)c[nH]c12 (centres unmarked) [Example 44, N-{3-[5-Fluoro-1-(3-morpholin-4-yl-propyl)-indan-1-yl]-1H-indol-7-yl}-methanesulfonamide]
